Measurements as given in patent US7964534B2, “Nuclear magnetic resonance assembly of chemical entities using advanced antenna probes” (Triad Liquidating Company, LLC, priority 2003, dated 2011).

Experiments:
[1] = target: unactivated p38α MAP kinase (Homo sapiens, UniProt Q16539); assay: WaterLOGSY screen of PBBA structure analogs; type: binding; conditions: 10 to 30 micromolar p38α, 0.1 to 1.0 millimolar compound, 4° C.
From the text: A library of 29 PBBA structure analogs was screened against unlabeled p38α MAP kinase (p38α) as follows. Samples containing 10 to 30 micromolar concentration of unactivated p38α MAP kinase and 0.1 to 1.0 millimolar concentration of one of the PBBA structure analogs were obtained. The samples were screened using WaterLOGSY with saturations times of 2 s (frequency selective excitation via a train of 232 6 ms it pulses with a GAUSS profile at an 80 Hz RF field strength) with […] using WATERGATE at 4° C. WaterLOGSY is further described in Dalvit et al. J. Biomol. NMR 21:349-59 (2001) Dalvit et al. J. Magn. Res. B112:282-288 (1996) and Dalvit et al., J. Biomol. NMR 11:437-444 (1998).

p38α MAP kinase = p38α MAP kinase (Homo sapiens, UniProt Q16539); assay: phosphorylation of myelin basic protein (MBP) by p38α; type: biochemical
p38α MAP kinase, sequence (Q16539 whole entry, the tested form may be a part): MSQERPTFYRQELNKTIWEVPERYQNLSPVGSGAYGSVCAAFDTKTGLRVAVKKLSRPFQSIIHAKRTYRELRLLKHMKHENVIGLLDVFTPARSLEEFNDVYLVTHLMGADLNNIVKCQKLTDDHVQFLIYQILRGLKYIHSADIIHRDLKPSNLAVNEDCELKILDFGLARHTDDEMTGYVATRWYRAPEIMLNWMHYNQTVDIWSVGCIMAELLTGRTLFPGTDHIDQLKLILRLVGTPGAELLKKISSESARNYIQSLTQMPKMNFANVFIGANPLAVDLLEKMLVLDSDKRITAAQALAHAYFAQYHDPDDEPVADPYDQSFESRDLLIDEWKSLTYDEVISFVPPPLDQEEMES
Method: The TTM2001.101.A09 bi-ligand compound and the fragments from which it was constructed were tested as inhibitors of p38α enzymatic activity in an assay measuring phosphorylation of myelin basic protein (MBP) by p38α.

ATP site of p38α = ATP site of p38α (Homo sapiens, UniProt Q16539); assay: fluorescence polarization displacement of fluorescently tagged staurosporine; type: binding
ATP site of p38α, sequence (Q16539 whole entry): as the sequence (Q16539 whole entry, the tested form may be a part) above

p38α [2] = target: T1, p38α (Homo sapiens, UniProt Q16539); assay: line broadening in 1D 1H NMR spectra; type: binding; parameters: dose or concentration left out as unconfirmed; conditions: 50 micromolar compound
T1 sequence (Q16539 whole entry): as the sequence (Q16539 whole entry, the tested form may be a part) above
Method: The ability of TTM2001.101.A09 to bind to p38α was determined by comparing the degree of line broadening in 1D ^1H NMR spectra for the compound in the presence of p38α compared to in the absence of p38α. […] (FIG. 4b) compared to the spectrum obtained for 50 micromolar of TTM2001.101.A09 in the absence of p38α (FIG. 4a), indicative of tight binding between p38α and TTM2001.101.A09.

p38α [3] = target: T1, p38α; assay: WaterLOGSY competition experiments; type: binding
From the text: A peptide having the sequence […] (SEQ ID NO:1) is a known phosphorylation substrate for p38 as described, for example, in Chen et al. Biochemistry 39:2079-2087 (2000). […] This site is shown in the lower panel of FIG. 7, and is referred to as the SL (specificity ligand) site, since extending a bi-ligand library into this site off of an ATP mimic might provide additional specificity.

unactivated p38α MAP kinase, sequence (Q16539 whole entry): as the sequence (Q16539 whole entry, the tested form may be a part) above

CCCCc1ccc(C(=O)O)cc1 [PBBA, p-butyl benzoic acid]
cross-saturation effects with p38α (binding) [1]: showed cross-saturation effects with p38α indicating binding to the protein
inhibition of phosphorylation of MBP protein by p38α (p38α MAP kinase): inhibit phosphorylation of MBP protein by p38α
displacement of fluorescently tagged staurosporine (ATP site of p38α): not able to displace a fluorescently tagged staurosporine

O=C(O)c1ccc(CCCCCCSCc2cc(-n3cnc4cc(C(=O)O)ccc43)ccc2F)cc1 [TTM2001.101.A09]
tighter than either of the starting fragments (p38α MAP kinase; IC50 compared with starting fragments PBBA and TTM2001.082.B09): greater than 100 fold
Kd (p38α MAP kinase; correction of the IC50 for high ATP concentration, read-out: Kd for binding between p38α and compound): ~300 nM
IC50 (p38α MAP kinase; inhibition of MBP phosphorylation by p38α): 1700 nM
line broadening in presence of p38α (binding) (p38α [2]): significant line-broadening

IPTTPITTTYFFFKKK [peptide, known phosphorylation substrate for p38]
displacement of PBBA from p38α (p38α [3]): could not displace PBBA from p38α
